Results taken from patent publication US20240279207A1, “SUBSTITUTED ACYL SULFONAMIDES FOR TREATING CANCER” (The Broad Institute, Inc., priority 2020, published 2024).

Assays:
[1] = molecular target: T1, Recombinant human His-tagged Kat6a protein (amino acids 194-810) (Homo sapiens, UniProt Q92794); test: Kat6a activity assay (TR-FRET, acetylation of Histone-H4-derived peptide); assay type: biochemical; settings: 60 mins at 22° C., 220 nM H4 peptide, 600 nM Acetyl Coenzyme A, read-out: KAT6A - DPF/HAT domain IC50 [mol/l] (arithmetic mean)
T1 construct: Kat6a protein (amino acids 194-810); His

[2] = tested on: ESR1 transcription in MVLN cells; test: MVLN reporter assay: repression of ESR1 transcription (luciferase signal); assay type: cell-based; settings: Homo sapiens, MVLN, 24 h, luciferase signal after 24 h, read-out: MVLN reporter assay, IC50 [M] (arithmetic mean)
How it was run: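 To control for cell loss, Alamar Blue (2 h, 530/590 nm) precedes the 24 h luciferase measurement. The reporter is an ERE from the Xenopus vitellogenin A2 gene driving luciferase, stably transfected into ER-expressing MVLN cells; duplicate samples.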

[3] = tested on: ZR-75-1 cells; test: ZR-75-1 proliferation assay; assay type: cell-based; settings: Homo sapiens, ZR-75-1, 144 h, Alamar Blue, read-out: ZR75-1 proliferation assay, EC50 [M] (arithmetic mean)
Text: (§1) For compound characterization cell survival assays were routinely run in two cell lines. ZR-75-1 is a breast carcinoma cell line containing a focal KAT6A amplification and high KAT6A protein expression. Proliferation of this cell line is inhibited upon treatment with KAT6A inhibitors. As a negative control cell line MDA-MB-436 were used. These cells carry a […] deletion of the KAT6A gene, have a low KAT6A protein expression and are not growth inhibited upon treatment with KAT6A inhibitors.
(§2) For measurements cell lines were plated at the below indicated concentration per […] in 96-well plates in a humidified incubator at 37° C. and 5% CO2.
ZR-75-1 (ATCC, CRL-1500; breast carcinoma); 3000 cells per well; culture medium: RPMI 1640 (Biochrom #FG 1215) medium containing 2.5% FBS (Biochrom #S0615).
(§3) Each sample was prepared as triplicate and rim wells were excluded. Plates were incubated at 37° C. and 5% CO2 for 144 h. Cell viability was measured by adding 10 μL of Alamar Blue Reagent (Invitrogen #DAL 1100) and plates were incubated for 2 h at 37° C. and 5% CO2. Fluorescence was measured at 590 nm wavelength with a Tecan Spark or Victor X3 MTP-Reader (PerkinElmer).

[4] = tested on: LCLC97TM1; test: LCLC97TM1 proliferation assay; assay type: cell-based; settings: Homo sapiens, LCLC-97TM1, LCLC97TM1; read-out: LCLC97TM1 proliferation assay; EC50 [M] (arithmetic mean)
[5] = tested on: MDA-MB-436 cells; test: MDA-MB-436 proliferation assay (negative control cell line); assay type: cell-based; settings: Homo sapiens, 144 h, Alamar Blue, read-out: MDA-MB-436 proliferation assay, EC50 [M] (arithmetic mean)
Text: as §1, §2
MDA-MB-436 (CLS, 300278; breast adenocarcinoma); 3000 cells per well; culture medium: DMEM/Ham's F12 (Biochrom #FG 4815) medium containing 2.5% FBS (Biochrom #S0615).
as §3

T1 sequence (Q92794 194-810): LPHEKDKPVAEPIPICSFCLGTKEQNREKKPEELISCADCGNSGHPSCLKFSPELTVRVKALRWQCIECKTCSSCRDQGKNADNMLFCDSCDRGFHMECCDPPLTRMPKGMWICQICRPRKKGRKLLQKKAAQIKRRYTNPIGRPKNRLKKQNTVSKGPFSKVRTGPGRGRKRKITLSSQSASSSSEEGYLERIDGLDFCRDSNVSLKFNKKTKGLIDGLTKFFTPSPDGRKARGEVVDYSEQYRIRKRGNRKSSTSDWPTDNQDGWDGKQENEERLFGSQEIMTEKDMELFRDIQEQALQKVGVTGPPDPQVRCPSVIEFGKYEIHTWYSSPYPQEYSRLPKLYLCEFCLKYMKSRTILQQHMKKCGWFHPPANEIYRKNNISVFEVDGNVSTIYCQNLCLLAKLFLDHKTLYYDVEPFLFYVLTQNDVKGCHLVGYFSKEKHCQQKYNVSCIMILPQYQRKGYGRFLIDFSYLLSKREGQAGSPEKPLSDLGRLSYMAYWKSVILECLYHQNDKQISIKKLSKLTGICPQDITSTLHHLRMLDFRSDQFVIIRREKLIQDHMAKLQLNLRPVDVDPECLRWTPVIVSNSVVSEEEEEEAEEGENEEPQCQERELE

| SMILES | IC50 [1] | IC50 [2] | EC50 [5] | EC50 [3] | EC50 [4] |
| --- | --- | --- | --- | --- | --- |
| CC1(C)CCc2cccc(S(=O)(=O)NC(=O)c3cc4c(F)cc(N5CCC5)cc4o3)c2O1 [Example 80, 6-(Azetidin-1-yl)-N-(2,2-dimethyl-3,4-dihydro-2H-1-benzopyran-8-sulfonyl)-4-fluoro-1-benzofuran-2-carboxamide] | 12.1 nM | 7.27e-08 M | > 2e-05 M | 1.49e-07 M | 3.17e-07 M |
| CCOc1ccccc1S(=O)(=O)NC(=O)c1cc2ccc(N3CC(F)(F)C3)cc2o1 [Example 118, 6-(3,3-Difluoroazetidin-1-yl)-N-(2-ethoxybenzene-1-sulfonyl)-1-benzofuran-2-carboxamide] | 1990 nM | 1.2e-06 M | > 2e-05 M | 2.46e-06 M | 2.72e-06 M |
| O=C(NS(=O)(=O)c1ccccc1-c1ccccc1)c1cc2ccc(N3CC(F)(F)C3)cc2o1 [Example 119, N-([1,1′-biphenyl]-2-sulfonyl)-6-(3,3-difluoroazetidin-1-yl)-1-benzofuran-2-carboxamide] | 1100 nM | 3.04e-06 M | > 2e-05 M | 3.7e-06 M | 1.46e-05 M |
| CCOc1ccccc1S(=O)(=O)NC(=O)c1cc2ccc(N3CC4(COC4)C3)cc2o1 [Example 125, N-(2-ethoxybenzene-1-sulfonyl)-6-(2-oxa-6-azaspiro[3.3]heptan-6-yl)-1-benzofuran-2-carboxamide] | > 20000 nM | > 2e-05 M | > 2e-05 M | > 2e-05 M | > 2e-05 M |
| O=C(NS(=O)(=O)c1cccc2ccc(Cl)nc12)c1cc2c(F)cc(N3CCC3)cc2o1 [Example 132, 6-(Azetidin-1-yl)-N-(2-chloroquinoline-8-sulfonyl)-4-fluoro-1-benzofuran-2-carboxamide] | 14.1 nM | 5.41e-08 M | 1.22e-05 M | 1.08e-07 M | 1.36e-07 M |
| CCCOc1ccccc1S(=O)(=O)NC(=O)c1cc2c(F)cc(N3CCC3)cc2o1 [Example 133, 6-(Azetidin-1-yl)-4-fluoro-N-(2-propoxybenzene-1-sulfonyl)-1-benzofuran-2-carboxamide] | 21.8 nM | 6.41e-08 M | > 2e-05 M | 1.61e-07 M | 6.64e-07 M |
| Cc1ccc(OC(C)C)c(S(=O)(=O)NC(=O)c2cc3c(F)cc(N4CCC4)cc3o2)c1 [Example 134, 6-(Azetidin-1-yl)-4-fluoro-N-{5-methyl-2-[(propan-2-yl)oxy]benzene-1-sulfonyl}-1-benzofuran-2-carboxamide] | 18.3 nM | 7.44e-08 M | > 2e-05 M | 8.18e-08 M | 3.76e-07 M |
| CCOc1ccc(CC)cc1S(=O)(=O)NC(=O)c1cc2c(F)cc(N3CC(F)C3)cc2o1 [Example 153, N-(2-ethoxy-5-ethylbenzene-1-sulfonyl)-4-fluoro-6-(3-fluoroazetidin-1-yl)-1-benzofuran-2-carboxamide] | 10.5 nM | 4.69e-08 M | > 2e-05 M | 4.98e-08 M | 1.6e-07 M |
| O=C(NS(=O)(=O)c1cccc2ccc(Cl)nc12)c1cc2c(F)cc(N3CC(F)C3)cc2o1 [Example 154, N-(2-Chloroquinoline-8-sulfonyl)-4-fluoro-6-(3-fluoroazetidin-1-yl)-1-benzofuran-2-carboxamide] | 13.4 nM | 7.11e-08 M | > 2e-05 M | 4.95e-08 M | 2.25e-07 M |
| CC(C)Oc1ccccc1S(=O)(=O)NC(=O)c1cc2c(F)cc(N3CC(F)C3)cc2o1 [Example 155, 4-Fluoro-6-(3-fluoroazetidin-1-yl)-N-{2-[(propan-2-yl)oxy]benzene-1-sulfonyl}-1-benzofuran-2-carboxamide] | 36.7 nM | 7.14e-08 M | > 2e-05 M | 7.48e-08 M | 4.28e-07 M |
| COc1cc(C)ccc1S(=O)(=O)NC(=O)c1cc2c(F)cc(N3CCC3)cc2o1 [Example 156, 6-(Azetidin-1-yl)-4-fluoro-N-(2-methoxy-4-methylbenzene-1-sulfonyl)-1-benzofuran-2-carboxamide] | 19.9 nM | 7.43e-08 M | > 2e-05 M | 1.34e-07 M | 6.6e-07 M |
| Cc1ccc(OC(C)C)c(S(=O)(=O)NC(=O)c2cc3c(F)cc(N4CC(F)C4)cc3o2)c1 [Example 157, 4-Fluoro-6-(3-fluoroazetidin-1-yl)-N-{5-methyl-2-[(propan-2-yl)oxy]benzene-1-sulfonyl}-1-benzofuran-2-carboxamide] | 37.3 nM | 7.51e-08 M | > 2e-05 M | 1.1e-07 M | 7.07e-07 M |

Second part, led by results:

| IC50 [1] | IC50 [2] | EC50 [5] | SMILES | EC50 [3] | EC50 [4] |
| --- | --- | --- | --- | --- | --- |
| 15.7 nM | 6.68e-08 M | > 2e-05 M | CCc1ccc2cccc(S(=O)(=O)NC(=O)c3cc4c(F)cc(N5CCC5)cc4o3)c2n1 [Example 171, 6-(Azetidin-1-yl)-N-(2-ethylquinoline-8-sulfonyl)-4-fluoro-1-benzofuran-2-carboxamide] | 3.98e-07 M | 4.4e-07 M |
| 8.25 nM | 4.72e-08 M | > 2e-05 M | COc1ccc(C2=CCOCC2)cc1S(=O)(=O)NC(=O)c1cc2c(F)cc(N3CCC3)cc2o1 [Example 196, 6-(azetidin-1-yl)-N-[5-(3,6-dihydro-2H-pyran-4-yl)-2-methoxybenzene-1-sulfonyl]-4-fluoro-1-benzofuran-2-carboxamide] | 1.44e-07 M | 8.1e-07 M |
| 7.7 nM | 1.79e-07 M | 1.6e-06 M | Cc1cc2c(c(S(=O)(=O)NC(=O)c3cc4c(F)cc(N5CCC5)cc4o3)c1C)OC(C)(C)C2 [Example 204, 6-(Azetidin-1-yl)-4-fluoro-N-(2,2,5,6-tetramethyl-2,3-dihydro-1-benzofuran-7-sulfonyl)-1-benzofuran-2-carboxamide] | 3.4e-07 M | 8.36e-07 M |
| 7.97 nM | 7.15e-08 M | > 2e-05 M | C=C(C)c1ccc(OC)c(S(=O)(=O)NC(=O)c2cc3c(F)cc(N4CCC4)cc3o2)c1 [Example 205, 6-(Azetidin-1-yl)-4-fluoro-N-[2-methoxy-5-(prop-1-en-2-yl)benzene-1-sulfonyl]-1-benzofuran-2-carboxamide] | 1.73e-07 M | 9.37e-07 M |
| 26.5 nM | 5.86e-08 M | > 2e-05 M | CCOc1ccc(C(F)(F)F)cc1S(=O)(=O)NC(=O)c1cc2c(F)cc(N3CCC3)cc2o1 [Example 209, 6-(azetidin-1-yl)-N-[2-ethoxy-5-(trifluoromethyl)phenyl]sulfonyl-4-fluoro-benzofuran-2-carboxamide] | 4.59e-08 M | 6.32e-07 M |
| 7.18 nM | 7.43e-08 M | > 2e-05 M | CC(C)c1ccc(OCC(F)(F)F)c(S(=O)(=O)NC(=O)c2cc3c(F)cc(N4CCC4)cc3o2)c1 [Example 215, 6-(azetidin-1-yl)-4-fluoro-N-[5-isopropyl-2-(2,2,2-trifluoroethoxy)phenyl]sulfonyl-benzofuran-2-carboxamide] | 5.82e-07 M | 2.83e-06 M |
| 1.79 nM | 5.37e-08 M | > 2e-05 M | CC(C)(C)c1ccc(OCC2CC2)c(S(=O)(=O)NC(=O)c2cc3c(F)cc(N4CCC4)cc3o2)c1 [Example 226, 6-(Azetidin-1-yl)-N-[(5-(tert-butyl)-2-(cyclopropylmethoxy)phenyl)sulfonyl]-4-fluorobenzofuran-2-carboxamide] | 2.78e-08 M | 4.63e-08 M |
| 5.4 nM | 4.82e-08 M | > 2e-05 M | CC(C)(C)c1ccc(OCC(F)(F)F)c(S(=O)(=O)NC(=O)c2cc3c(F)cc(N4CCC4)cc3o2)c1 [Example 227, 6-(Azetidin-1-yl)-N-[(5-(tert-butyl)-2-(2,2,2-trifluoroethoxy)phenyl)sulfonyl]-4-fluorobenzofuran-2-carboxamide] | 7.19e-08 M | 1.22e-07 M |
